{
  "source": "patent US20050282159A1",
  "about": "“Rpob gene of streptomyces, primer specific to streptomyces, and identification method of streptomyces having rifampin resistance or sensitivity by using the same” (priority 2001, published 2005)",
  "assay_in_all_cases": "rifampin-sensitive test on Bennet solid media",
  "assay_type_in_all_cases": "cell-based",
  "set-up_in_all_cases": "key: “(+)” indicates a genotype with rifampin-resistance; “(−)” indicates a genotype with rifampin-susceptibility",
  "key": {"[1]": {"test_system": "S. bikiniensis KCTC 9172", "conditions": "TCG (TCC) genotype, 25 ug/ml rifampin, 72 hr", "experimental": "(§1) The 47 strains were respectively cultured at 28° C. for 72 hr in Bennet liquid media. The culture solution was then inoculated on Bennet solid media (yeast extract 1 g/L, Beef extract 1 g/L, Tryptone 2 g/L, Glycerol 10 g/L, Agar 15 g/L) containing 25 ug/ml rifampin, and after incubation for 72 hr, rifampin-resistance was tested."}, "[2]": {"test_system": "S. cacoi asoensis KCTC 9700", "conditions": "TCG (TCC) genotype, 25 ug/ml rifampin, 72 hr", "experimental": "as §1"}, "[3]": {"test_system": "S. albogriseolus KCTC 9773", "conditions": "AAC genotype, 25 ug/ml rifampin, 72 hr", "experimental": "as §1"}, "[4]": {"test_system": "S. aminophilus KCTC 9673", "conditions": "AAC genotype, 25 ug/ml rifampin, 72 hr", "experimental": "as §1"}, "[5]": {"test_system": "S. celluloflavus KCTC 9702", "conditions": "TCG (TCC) genotype, 25 ug/ml rifampin, 72 hr", "experimental": "as §1"}, "[6]": {"test_system": "S. capillispiralis KCTC 1719", "conditions": "AAC genotype, 25 ug/ml rifampin, 72 hr", "experimental": "as §1"}, "[7]": {"test_system": "S. cinnamonensis KCTC 9708", "conditions": "TCG (TCC) genotype, 25 ug/ml rifampin, 72 hr", "experimental": "as §1"}, "[8]": {"test_system": "S. albireticuli KCTC 9685", "conditions": "TCG (TCC) genotype, 25 ug/ml rifampin, 72 hr", "experimental": "as §1"}, "[9]": {"test_system": "S. bambergiensis KCTC 9019", "conditions": "TCG (TCC) genotype, 25 ug/ml rifampin, 72 hr", "experimental": "as §1"}, "[10]": {"test_system": "S. flavofuscus KCTC 9737", "conditions": "AAC genotype, 25 ug/ml rifampin, 72 hr", "experimental": "as §1"}, "[11]": {"test_system": "S. sclerotialus KCTC 9065", "conditions": "AAC genotype, 25 ug/ml rifampin, 72 hr", "experimental": "as §1"}, "[12]": {"test_system": "S. phaeochromogenes KCTC 9763", "conditions": "AAC genotype, 25 ug/ml rifampin, 72 hr", "experimental": "as §1"}, "[13]": {"test_system": "S. bacillaris KCTC 9018", "conditions": "TCG (TCC) genotype, 25 ug/ml rifampin, 72 hr", "experimental": "as §1"}, "[14]": {"test_system": "S. abikoensis KCTC 9662", "conditions": "TCG (TCC) genotype, 25 ug/ml rifampin, 72 hr", "experimental": "as §1"}, "[15]": {"test_system": "S. ederensis KCTC 9726", "conditions": "AAC genotype, 25 ug/ml rifampin, 72 hr", "experimental": "as §1"}, "[16]": {"test_system": "S. flaveolus KCTC 9022", "conditions": "AAC genotype, 25 ug/ml rifampin, 72 hr", "experimental": "as §1"}, "[17]": {"test_system": "S. acrimycini KCTC 9679", "conditions": "AAC genotype, 25 ug/ml rifampin, 72 hr", "experimental": "as §1"}, "[18]": {"test_system": "S. echinoruber KCTC 9725", "conditions": "AAC genotype, 25 ug/ml rifampin, 72 hr", "experimental": "as §1"}, "[19]": {"test_system": "S. achromogenes KCTC 1740", "conditions": "TCG (TCC) genotype, 25 ug/ml rifampin, 72 hr", "experimental": "as §1"}, "[20]": {"test_system": "S. alboniger KCTC 9014", "conditions": "TCG (TCC) genotype, 25 ug/ml rifampin, 72 hr", "experimental": "as §1"}, "[21]": {"test_system": "S. actuosus KCTC 9112", "conditions": "TCG (TCC) genotype, 25 ug/ml rifampin, 72 hr", "experimental": "as §1"}, "[22]": {"test_system": "S. argenteolus KCTC 9695", "conditions": "TCG (TCC) genotype, 25 ug/ml rifampin, 72 hr", "experimental": "as §1"}, "[23]": {"test_system": "S. spectabilis KCTC 9218", "conditions": "AAC genotype, 25 ug/ml rifampin, 72 hr", "experimental": "as §1"}, "[24]": {"test_system": "S. carpinensis KCTC 9128", "conditions": "TCG (TCC) genotype, 25 ug/ml rifampin, 72 hr", "experimental": "as §1"}, "[25]": {"test_system": "S. aculeolatus KCTC 9680", "conditions": "AAC genotype, 25 ug/ml rifampin, 72 hr", "experimental": "as §1"}, "[26]": {"test_system": "S. albofaciens KCTC 9747", "conditions": "TCG (TCC) genotype, 25 ug/ml rifampin, 72 hr", "experimental": "as §1"}, "[27]": {"test_system": "S. antimycoticus KCTC 9694", "conditions": "TCG (TCC) genotype, 25 ug/ml rifampin, 72 hr", "experimental": "as §1"}},
  "data": [
    {"compound": "CO[C@H]1/C=C/O[C@@]2(C)Oc3c(C)c(O)c4c(O)c(c(/C=N/N5CCN(C)CC5)c(O)c4c3C2=O)NC(=O)/C(C)=C\\C=C\\[C@H](C)[C@H](O)[C@@H](C)[C@@H](O)[C@@H](C)[C@H](OC(C)=O)[C@@H]1C", "note": "[rifampin]", "values": [
      {"measurement": "genotype (rifampin-resistance or susceptibility)", "setting": "[1]", "result": "−"},
      {"measurement": "genotype (rifampin-resistance or susceptibility)", "setting": "[2]", "result": "−"},
      {"measurement": "genotype (rifampin-resistance or susceptibility)", "setting": "[3]", "result": "+"},
      {"measurement": "genotype (rifampin-resistance or susceptibility)", "setting": "[4]", "result": "+"},
      {"measurement": "genotype (rifampin-resistance or susceptibility)", "setting": "[5]", "result": "−"},
      {"measurement": "genotype (rifampin-resistance or susceptibility)", "setting": "[6]", "result": "+"},
      {"measurement": "genotype (rifampin-resistance or susceptibility)", "setting": "[7]", "result": "−"},
      {"measurement": "genotype (rifampin-resistance or susceptibility)", "setting": "[8]", "result": "−"},
      {"measurement": "genotype (rifampin-resistance or susceptibility)", "setting": "[9]", "result": "−"},
      {"measurement": "genotype (rifampin-resistance or susceptibility)", "setting": "[10]", "result": "+"},
      {"measurement": "genotype (rifampin-resistance or susceptibility)", "setting": "[11]", "result": "+"},
      {"measurement": "genotype (rifampin-resistance or susceptibility)", "setting": "[12]", "result": "+"},
      {"measurement": "genotype (rifampin-resistance or susceptibility)", "setting": "[13]", "result": "−"},
      {"measurement": "genotype (rifampin-resistance or susceptibility)", "setting": "[14]", "result": "−"},
      {"measurement": "genotype (rifampin-resistance or susceptibility)", "setting": "[15]", "result": "+"},
      {"measurement": "genotype (rifampin-resistance or susceptibility)", "setting": "[16]", "result": "+"},
      {"measurement": "genotype (rifampin-resistance or susceptibility)", "setting": "[17]", "result": "+"},
      {"measurement": "genotype (rifampin-resistance or susceptibility)", "setting": "[18]", "result": "+"},
      {"measurement": "genotype (rifampin-resistance or susceptibility)", "setting": "[19]", "result": "−"},
      {"measurement": "genotype (rifampin-resistance or susceptibility)", "setting": "[20]", "result": "−"},
      {"measurement": "genotype (rifampin-resistance or susceptibility)", "setting": "[21]", "result": "−"},
      {"measurement": "genotype (rifampin-resistance or susceptibility)", "setting": "[22]", "result": "−"},
      {"measurement": "genotype (rifampin-resistance or susceptibility)", "setting": "[23]", "result": "+"},
      {"measurement": "genotype (rifampin-resistance or susceptibility)", "setting": "[24]", "result": "−"},
      {"measurement": "genotype (rifampin-resistance or susceptibility)", "setting": "[25]", "result": "+"},
      {"measurement": "genotype (rifampin-resistance or susceptibility)", "setting": "[26]", "result": "−"},
      {"measurement": "genotype (rifampin-resistance or susceptibility)", "setting": "[27]", "result": "−"}
    ]}
  ]
}
